According to US9975882B2, “Heteroaromatic compounds as BTK inhibitors” (Boehringer Ingelheim International GmbH, priority 2015, dated 2018):
Where two headings read alike, the source gives them in different places.

Tests used:
[1] = tested on: mean arterial pressure (MAP); details: rat, in vivo; for 5-Day 24-h MAP Change versus Control: po
Description: In-Vivo Assay—Comparison Between the Compounds of the Present Invention and Comparative Compounds A, B and C
In a side-by-side in-vivo study, select compounds of the present invention and comparative compounds A-C are evaluated in telemetry-instrumented conscious rats to determine their effects on mean arterial pressure (MAP) at doses at or above therapeutically relevant concentrations.
(§1) All animals (telemetry-instrumented) are single housed in metabolic cages. Rats are acclimated to the metabolic cage for at least 3 days and then dosed with vehicle for up to 4 days. Blood pressure, heart rate, and bodyweight are collected during the baseline period and animals are randomized into 3 groups based on these parameters (n=8-9/group). Treatment groups are: vehicle and test compound (10 mg/kg po and 30 mg/kg po qd); animals are treated with compound for 5 days. […] Mean arterial pressure (MAP) and heart rate (HR) are collected continuously throughout the study. Statistical analyses is performed using GraphPad Prism based on the average 24-hr mean value during five days of compound administration (one-way ANOVA with Dunnett's post-test vs. Vehicle; p<0.05 is considered statistically significant).

[2] = Plasma compound exposure in rats (tail bleed, day 6); assay type: in vivo; details: rat
Description: as §1

[3] = biological target: human recombinant full length TEC (His-tagged) (Homo sapiens (Human), UniProt P42680); experiment: TEC Lanthscreen Eu Kinase Binding assay; details: 1 nM TEC
[4] = biological target: human recombinant BTK (full length, His-tagged) (Homo sapiens (Human), UniProt Q06187); experiment: BTK Z'-LYTE assay; assay type: biochemical; details: 25 μM ATP;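 further: FRET readout of kinase phosphorylating a coumarin and fluorescein labelled synthetic peptide, detected via protease sensitivity of unphosphorylated versus phosphorylated substrate, incubated at 22 °C in 384-well plates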
Description: Z′-LYTE™ Assay (Life Technologies):
(§3) The Z′-Lyte assay employs a FRET-based, coupled-enzyme format and is based on the differential sensitivity of phosphorylated and non-phosphorylated peptides to proteolytic Cleavage. The activity of human recombinant BTK (full length, His-tagged), BMX (full length, His-tagged) or Txk (full length, GST-tagged) is estimated by measuring the phosphorylation of a synthetic FRET peptide substrate labeled with Coumarin and Fluorescein. […] Incubations are carried out at 22° C. in black polypropylene 384-well plates (Corning).
(§4) Representative compounds of the present invention are assessed for inhibition of BTK, BMX, and TXK measuring phosphorylation of a substrate (Z′-LYTE™ assay, Life Technologies) and TEC measuring displacement of a “tracer” (Lanthscreen® Eu Kinase Binding assay, Life Technologies).

[5] = biological target: human recombinant Txk (full length, GST-tagged) (Homo sapiens (Human), UniProt P42681); experiment: TXK Z'-LYTE assay; details: read-out: TXK IC50, 100 μM ATP;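 further: FRET read-out of kinase phosphorylation of a synthetic peptide labelled with Coumarin and Fluorescein, scored by protease sensitivity of unphosphorylated peptide, incubated at 22 °C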
Description: Z′-LYTE™ Assay (Life Technologies):
as §3, §4

[6] = tested on: BTK (IL-6 production in primary CD19+ B cells); experiment: Inhibition of IL-6 production in B cells co-stimulated with ODN 2006 and anti-hIgD; assay type: cell-based; details: B-cell, anti-human IgD + ODN 2006
Description: Inhibition of IL-6 Production in B Cells Co-Stimulated with ODN 2006 and anti-hIgD
Primary CD19+ B cells (AllCells #PB010F) are thawed and plated in RPMI containing 10% HI FBS in a 384-well tissue cultured plate at 20,000 cells/well. The cells are treated with test compound (0.5% DMSO final concentration) and incubated for 1 hour at 37° C., 5% CO2. Cells are then stimulated with 5 ug/mL Goat F(ab′)2 anti-human IgD (SouthernBiotech #2032) and 2 uM ODN 2006 (InvivoGen #tlrl-2006) and incubated for 18-24 hours at 37° C., 5% CO2. IL-6 in the supernatant is measured using Meso Scale Discovery kit #K211AKB-6.
(§2) Representative compounds of the present invention are tested and show BTK inhibition (Table I). […] Additionally, compounds of the present invention, as represented by examples in Table II, are selective for BTK inhibition over other related kinases. […] In this table the BTK activity is measured by IL-6 production in primary CD19^+ B cells, and the EGFR activity is measured by EGFR phosphorylation in A431 cells.

[7] = biological target: EGFR (EGFR phosphorylation in A431 cells) (Homo sapiens (Human), UniProt P00533); experiment: Inhibition of EGFR autophosphorylation in A431 human epithelial cells stimulated with EGF; assay type: cell-based; details: EGF 60 ng/mL, read-out: A431 p-EGFR IC50
Description: Inhibition of EGFR Autophosphorylation in A431 Human Epithelial Cells Stimulated with Epithelial Growth Factor
A431 cells (ATCC #CRL-1555 FZ) are thawed and plated in DMEM containing 10% FBS in a 384-well tissue culture treated plate at 15,000 cells/well. After incubating for 24 hours at 37° C., 5% CO2, the cells are treated with test compound (1% DMSO final concentration) and incubated for 16 hours at 37° C., 5% CO2. EGF (Millipore, 01-107) is added at a final concentration of 60 ng/mL and incubated for 10 minutes. The medium is removed, the cells are lysed, and phospho EGFR is measured (Meso Scale Diagnostics, N31CB-1).
as §2

[8] = biological target: human full length His-tagged BTK (Homo sapiens (Human), UniProt Q06187); experiment: BTK Lanthscreen Eu Kinase Binding assay; details: 2 nM BTK
Description: BTK Lanthscreen® Eu Kinase Binding Assay:
A Lanthscreen® Eu Kinase Binding assay (Life Technologies) is performed to quantitate the ability of test compounds to bind to BTK. The assay is based on the binding and displacement of Alexa Fluor647-labeled Kinase Tracer #236 to the ATP-binding site of human full length His-tagged BTK (Life Technologies cat #PV3587) with TR-FRET detection using a europium-labeled anti-His antibody. The assay is assembled in 384-well low volume NBS black plates (Corning) where 2 nM BTK and test compound in DMSO at varying concentrations are pre-incubated for 30 min at 28° C. in assay buffer consisting of 50 mM HEPES, pH 7.4, 10 mM MgCl2, 1 mM EGTA. 100 μM Na3VO4 and 0.01% Brij 35. Then, 2 nM of Eu-anti His antibody and 30 nM Kinase Tracer are added and incubated for 60 min at 28° C. Following incubation, TR-FRET signal is read on an Envision plate reader (Excitation: 340 nm; Emissions: 615 and 665 nm). The 665:615 nm emission ratio is calculated and converted to POC compared to control and blank wells.

Sequence of human recombinant Txk (full length, GST-tagged) (P42681 whole entry): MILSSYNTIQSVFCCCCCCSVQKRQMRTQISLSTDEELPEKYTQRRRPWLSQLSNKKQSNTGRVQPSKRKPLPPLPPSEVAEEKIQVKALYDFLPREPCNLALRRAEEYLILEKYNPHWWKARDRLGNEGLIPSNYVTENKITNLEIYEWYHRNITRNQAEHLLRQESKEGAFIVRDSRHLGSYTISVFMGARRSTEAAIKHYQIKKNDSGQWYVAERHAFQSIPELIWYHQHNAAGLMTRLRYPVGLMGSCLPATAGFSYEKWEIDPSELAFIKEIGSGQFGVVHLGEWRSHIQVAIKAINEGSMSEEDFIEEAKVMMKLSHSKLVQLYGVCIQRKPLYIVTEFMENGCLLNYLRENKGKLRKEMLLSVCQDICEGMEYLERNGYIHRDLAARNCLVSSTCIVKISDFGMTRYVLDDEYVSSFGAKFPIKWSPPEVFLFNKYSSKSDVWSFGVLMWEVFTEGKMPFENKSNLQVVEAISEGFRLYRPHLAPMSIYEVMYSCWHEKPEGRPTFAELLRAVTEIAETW
Sequence of human full length His-tagged BTK (Q06187 whole entry): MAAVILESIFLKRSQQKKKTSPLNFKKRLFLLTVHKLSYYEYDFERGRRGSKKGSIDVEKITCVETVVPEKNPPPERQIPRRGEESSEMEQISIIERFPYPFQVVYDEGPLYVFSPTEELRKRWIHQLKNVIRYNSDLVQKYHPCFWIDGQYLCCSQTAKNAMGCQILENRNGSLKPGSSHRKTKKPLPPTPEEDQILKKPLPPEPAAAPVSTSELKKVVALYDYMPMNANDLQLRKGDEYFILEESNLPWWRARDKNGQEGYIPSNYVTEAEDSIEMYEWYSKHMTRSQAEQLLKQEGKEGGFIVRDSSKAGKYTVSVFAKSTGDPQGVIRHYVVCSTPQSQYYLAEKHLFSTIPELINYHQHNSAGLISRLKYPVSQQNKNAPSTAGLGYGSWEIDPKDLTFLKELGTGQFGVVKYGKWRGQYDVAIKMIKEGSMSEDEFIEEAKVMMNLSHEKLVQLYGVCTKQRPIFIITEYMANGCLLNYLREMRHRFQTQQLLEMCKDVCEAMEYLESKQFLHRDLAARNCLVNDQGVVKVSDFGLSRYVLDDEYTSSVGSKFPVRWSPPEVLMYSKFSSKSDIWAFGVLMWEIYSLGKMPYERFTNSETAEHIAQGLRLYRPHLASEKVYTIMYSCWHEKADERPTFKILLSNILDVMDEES
Sequence of human recombinant BTK (full length, His-tagged) (Q06187 whole entry): as above
Sequence of human recombinant full length TEC (His-tagged) (P42680 whole entry): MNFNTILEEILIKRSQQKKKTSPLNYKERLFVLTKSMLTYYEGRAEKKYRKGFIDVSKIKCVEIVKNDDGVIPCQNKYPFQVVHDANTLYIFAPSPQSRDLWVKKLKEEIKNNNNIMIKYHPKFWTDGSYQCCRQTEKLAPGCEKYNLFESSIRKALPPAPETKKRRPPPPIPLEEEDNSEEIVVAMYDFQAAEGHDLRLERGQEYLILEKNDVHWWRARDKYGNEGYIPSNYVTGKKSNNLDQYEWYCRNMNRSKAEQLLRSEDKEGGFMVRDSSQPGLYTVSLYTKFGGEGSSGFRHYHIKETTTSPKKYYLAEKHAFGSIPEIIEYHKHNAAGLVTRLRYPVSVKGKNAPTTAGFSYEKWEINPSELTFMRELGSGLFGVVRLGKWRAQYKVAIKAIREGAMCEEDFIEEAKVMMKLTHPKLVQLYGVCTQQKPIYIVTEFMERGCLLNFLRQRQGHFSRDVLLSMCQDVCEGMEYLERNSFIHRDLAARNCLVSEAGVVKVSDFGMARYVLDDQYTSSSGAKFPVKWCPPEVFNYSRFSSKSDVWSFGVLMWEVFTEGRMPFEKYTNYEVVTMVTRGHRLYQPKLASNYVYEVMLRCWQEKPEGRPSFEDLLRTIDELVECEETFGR
Sequence of EGFR (EGFR phosphorylation in A431 cells) (P00533 25-1210): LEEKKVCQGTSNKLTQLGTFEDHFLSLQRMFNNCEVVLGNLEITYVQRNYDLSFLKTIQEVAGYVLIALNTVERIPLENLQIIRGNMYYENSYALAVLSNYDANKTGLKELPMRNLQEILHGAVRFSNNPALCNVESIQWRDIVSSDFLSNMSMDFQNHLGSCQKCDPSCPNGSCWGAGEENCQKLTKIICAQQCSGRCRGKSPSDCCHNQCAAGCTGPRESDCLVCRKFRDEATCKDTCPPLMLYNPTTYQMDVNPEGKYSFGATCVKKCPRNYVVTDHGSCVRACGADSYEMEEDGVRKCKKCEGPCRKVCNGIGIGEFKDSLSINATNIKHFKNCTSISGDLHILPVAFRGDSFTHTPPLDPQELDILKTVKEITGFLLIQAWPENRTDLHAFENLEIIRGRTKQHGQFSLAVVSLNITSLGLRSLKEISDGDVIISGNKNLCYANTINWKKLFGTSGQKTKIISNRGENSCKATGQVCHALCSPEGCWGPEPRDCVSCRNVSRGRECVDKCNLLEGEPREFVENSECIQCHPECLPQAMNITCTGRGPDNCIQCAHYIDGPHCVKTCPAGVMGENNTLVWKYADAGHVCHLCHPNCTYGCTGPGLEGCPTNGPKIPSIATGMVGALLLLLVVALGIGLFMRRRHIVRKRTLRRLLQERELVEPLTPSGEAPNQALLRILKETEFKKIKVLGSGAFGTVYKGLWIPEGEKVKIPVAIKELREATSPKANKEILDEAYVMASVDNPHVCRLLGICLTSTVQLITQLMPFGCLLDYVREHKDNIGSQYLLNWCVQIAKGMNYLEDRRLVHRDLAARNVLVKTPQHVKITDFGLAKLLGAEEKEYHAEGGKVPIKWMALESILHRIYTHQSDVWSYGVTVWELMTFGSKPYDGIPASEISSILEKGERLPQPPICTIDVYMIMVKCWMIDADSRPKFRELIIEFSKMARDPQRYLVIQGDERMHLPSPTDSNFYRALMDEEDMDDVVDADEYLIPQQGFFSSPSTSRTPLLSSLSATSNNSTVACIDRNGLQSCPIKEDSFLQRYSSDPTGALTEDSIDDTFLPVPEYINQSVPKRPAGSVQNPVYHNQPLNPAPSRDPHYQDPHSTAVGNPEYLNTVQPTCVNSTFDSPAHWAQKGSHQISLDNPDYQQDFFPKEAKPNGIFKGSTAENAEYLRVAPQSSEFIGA

5-Day 24-h MAP Change versus Control ([1]; 10 mg/kg, 5 days) [mmHg] | 5-Day 24-h MAP Change versus Control ([1]; 30 mg/kg, 5 days) [mmHg] | Cmax ([2]; plasma, 10 mg/kg po qd) [µM] | Cmax ([2]; plasma, 30 mg/kg po qd) [µM] | IC50 [3] [nM] | 5-Day 24-h MAP Change versus Control ([1]; 10 mg/kg) [mmHg] | 5-Day 24-h MAP Change versus Control ([1]; 30 mg/kg) [mmHg] | Cmax ([2]; 10 mg/kg po qd) [µM] | Cmax ([2]; 30 mg/kg po qd) [µM] | IC50 [4] [nM] | IC50 [5] [nM] | IC50 [6] [nM] | IC50 [7] [nM] | IC50 [8] [nM] | SMILES | effect on mean arterial pressure (MAP) [1]
3 ± 1 | 4 ± 1 | 0.319 ± 0.036 | 0.561 ± 0.183 |  |  |  |  |  |  |  |  |  |  | C=CC(=O)N1CCC[C@@H](n2nc(-c3ccc(Oc4ccccc4)cc3)c3c(N)ncnc32)C1 [Compound A, 1-[(3R)-3-[4-amino-3-(4-phenoxyphenyl)pyrazolo[3,4-d]pyrimidin-1-yl]-1-piperidyl]prop-2-en-1-one] | statistically significant increases in MAP
 |  |  |  | 44 | 3 ± 1 | 2 ± 1 | 0.182 ± 0.017 | 0.48 ± 0.053 | 0.9 |  |  |  |  | CC#CC(=O)N1CCC2(CC(n3nc(-c4ccc(OC(C)C)cc4)c(C(N)=O)c3N)C2)C1 (stereo not shown) [Compound B, 5-amino-1-(7-but-2-ynoyl-7-azaspiro[3.4]octan-2-yl)-3-(4-isopropoxyphenyl) pyrazole-4-carboxamide] | statistically significant increases in MAP
4 ± 1 | 5 ± 1 | 0.644 ± 0.096 | 1.73 ± 0.434 | 6.8 |  |  |  |  |  | 22 |  |  |  | C=CC(=O)Nc1cccc(Nc2nc(Nc3ccc(OCCOC)cc3)ncc2F)c1 [Compound C, N-(3-(5-fluoro-2-(4-(2-methoxyethoxy)phenylamino)pyrimidin-4-ylamino)phenyl)acrylamide] | statistically significant increases in MAP
 |  |  |  | 160 |  |  |  |  | 5 | 220 | 2.3 | > 10000 | 0.9 | CC#CC(=O)N1CC[C@]2(C1)C[C@H](n1nc(-c3cn(Cc4cccc(C(F)(F)F)c4)nc3C)c(C(N)=O)c1N)C2 [Example 19] | 
 |  |  |  | 1100 |  |  |  |  | 40 | 1900 | 9.2 | > 10000 | 5.8 | CC#CC(=O)N1CC[C@]2(C1)C[C@H](n1nc(-c3c(C)nn(Cc4cccc(C(F)(F)F)c4)c3C)c(C(N)=O)c1N)C2 [Example 21] | 
 |  |  |  | 130 |  |  |  |  | 8.3 | 600 | 4.5 | > 10000 | 1.3 | CC#CC(=O)N1CC[C@]2(C1)C[C@H](n1nc(-c3cnn(Cc4cccc(C(F)(F)F)c4)c3)c(C(N)=O)c1NC)C2 [Example 23] | 
 |  |  |  | 160 |  |  |  |  | 19 | 850 | 6.1 | > 10000 | 2.6 | CC#CC(=O)N1CC[C@]2(C1)C[C@H](n1nc(-c3ccn(Cc4cccc(C(F)(F)F)c4)n3)c(C(N)=O)c1N)C2 [Example 25] | 
 |  |  |  | 430 |  |  |  |  | 18 | 3000 | 4 | > 10000 | 2.6 | C=CC(=O)N1CC[C@]2(C1)C[C@H](n1nc(-c3cnn(Cc4cccc(C(F)(F)F)c4F)c3)c(C(N)=O)c1N)C2 [Example 26] | 
 |  |  |  | 64 |  |  |  |  | 3 | 160 | 2.4 | > 10000 | 0.6 | CC#CC(=O)N1CC[C@]2(C1)C[C@H](n1nc(-c3cnn(Cc4ccc(F)c(C(F)(F)F)c4)c3)c(C(N)=O)c1N)C2 [Example 30] | 
 |  |  |  | 48 |  |  |  |  | 1.3 | 59 | 1.2 | > 10000 | 0.4 | CC#CC(=O)N1CC[C@]2(C1)C[C@H](n1nc(-c3cnn(Cc4cccc(C(F)(F)F)c4F)c3)c(C(N)=O)c1N)C2 [Example 33] | 
 |  |  |  | 22 |  |  |  |  | 1 | 50 | 0.5 | > 10000 | 0.2 | CC#CC(=O)N1CC[C@]2(C1)C[C@H](n1nc(-c3cnn(Cc4cccc(C(F)F)c4)c3)c(C(N)=O)c1N)C2 [Example 36] | 
 |  |  |  | 20 |  |  |  |  | 1.4 | 78 | 0.7 | > 10000 | 0.3 | CC#CC(=O)N1CC[C@]2(C1)C[C@H](n1nc(-c3cnn(Cc4ccccc4)c3)c(C(N)=O)c1N)C2 [Example 44] | 
 |  |  |  | 34 |  |  |  |  | 2.7 | 310 | 1.1 | > 10000 | 0.5 | CC#CC(=O)N1CC2(CC(n3nc(-c4cnn(Cc5cccc(C(F)(F)F)c5)c4)c(C(N)=O)c3N)C2)C1 [Example 47] | 
 |  |  |  | 18 |  |  |  |  | 0.8 | 12 | 1.9 | > 10000 | 0.3 | CC#CC(=O)N1CC[C@]2(C1)C[C@H](n1nc(-c3cnn(Cc4cccc(C5CC5)c4)c3)c(C(N)=O)c1N)C2 [Example 51] | 
 |  |  |  | 100 |  |  |  |  | 7 | 260 | 0.5 | > 10000 | 1.2 | CC#CC(=O)N1CC[C@]2(C1)C[C@H](n1nc(-c3cn(Cc4cccc(C)c4)nc3C)c(C(N)=O)c1N)C2 [Example 52] | 
 |  |  |  | 47 |  |  |  |  | 1.3 | 84 | 0.4 | > 10000 | 0.3 | CC#CC(=O)N1CC[C@]2(C1)C[C@H](n1nc(-c3cnn(Cc4cccc(F)c4Cl)c3)c(C(N)=O)c1N)C2 [Example 53] | 
 |  |  |  | 35 |  |  |  |  | 1.5 | 110 | 0.4 | > 10000 | 0.5 | CC#CC(=O)N1CC[C@]2(C1)C[C@H](n1nc(-c3cnn(Cc4ccccc4Cl)c3)c(C(N)=O)c1N)C2 [Example 54] | 
 |  |  |  | 67 |  |  |  |  | 2.5 | 79 | 1.5 | > 10000 | 0.7 | CC#CC(=O)N1CC[C@]2(C1)C[C@H](n1nc(-c3cnn(Cc4cc(F)ccc4Cl)c3)c(C(N)=O)c1N)C2 [Example 55] | 
 |  |  |  | 120 |  |  |  |  | 2.2 | 150 | 0.7 | > 10000 | 0.6 | CC#CC(=O)N1CC[C@]2(C1)C[C@H](n1nc(-c3cnn(Cc4cccc(F)c4C(F)(F)F)c3)c(C(N)=O)c1N)C2 [Example 56] | 
 |  |  |  | 35 |  |  |  |  | 1.7 | 100 | 0.6 | > 10000 | 0.5 | CC#CC(=O)N1CC[C@]2(C1)C[C@H](n1nc(-c3cnn(Cc4ccccc4F)c3)c(C(N)=O)c1N)C2 [Example 60] | 
